Patent publication US20240400577A1, “MODULATORS OF PROTEIN KINASES” (VIBLIOME THERAPEUTICS, LLC, priority 2021, published 2024)

Assays:
Test in all cases: Kinase panel enzymatic inhibition assay (Nanosyn)
Format in all cases: biochemical
Conditions in all cases: compound 5 μM; ATP at Km; 30-minute pre-incubation
RET = target: T1, RET (Homo sapiens, UniProt P07949)
T1 construct: Nanosyn (contract laboratory that ran the panel)
How it was run: (§1)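 Inhibition is expressed as percent at 5 μM or as IC50, with ATP set at the Km of each kinase and a 30-minute compound pre-incubation. Detection used an accepted enzymatic format such as Caliper mobility shift.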

FYN = target: T2, FYN (Homo sapiens, UniProt P06241)
T2 construct: purchased Nanosyn (contract screening)
How it was run: as §1

LYNa = target: T3, LYNa (Homo sapiens, UniProt P07948)
T3 construct: purchased Nanosyn (contract screening)
How it was run: as §1

CLK4 = target: T4, CLK4 (Homo sapiens, UniProt Q9HAZ1)
T4 construct: purchased Nanosyn (contract screening)
How it was run: as §1

CSK = target: T5, CSK (Homo sapiens, UniProt P41240)
T5 construct: purchased Nanosyn (contract screening)
How it was run: as §1

PIKfyve = target: T6, PIKfyve (Homo sapiens, UniProt Q9Y2I7)
T6 construct: Nanosyn (contract laboratory that ran the panel)
How it was run: as §1

ZAK = target: T7, ZAK (Homo sapiens, UniProt Q9NYL2)
T7 construct: Nanosyn (contract laboratory that ran the panel)
How it was run: as §1

COT1 = target: T8, COT1 (Homo sapiens, UniProt P41279)
T8 construct: purchased Nanosyn (contract screening)
How it was run: as §1

PDGFRb = target: T9, PDGFRb (Homo sapiens, UniProt P09619)
T9 construct: Nanosyn (contract laboratory that ran the panel)
How it was run: as §1

MAP4K2 = target: T10, MAP4K2 (Homo sapiens, UniProt Q12851)
T10 construct: purchased Nanosyn (contract screening)
T10 sequence (Q12851 1-820): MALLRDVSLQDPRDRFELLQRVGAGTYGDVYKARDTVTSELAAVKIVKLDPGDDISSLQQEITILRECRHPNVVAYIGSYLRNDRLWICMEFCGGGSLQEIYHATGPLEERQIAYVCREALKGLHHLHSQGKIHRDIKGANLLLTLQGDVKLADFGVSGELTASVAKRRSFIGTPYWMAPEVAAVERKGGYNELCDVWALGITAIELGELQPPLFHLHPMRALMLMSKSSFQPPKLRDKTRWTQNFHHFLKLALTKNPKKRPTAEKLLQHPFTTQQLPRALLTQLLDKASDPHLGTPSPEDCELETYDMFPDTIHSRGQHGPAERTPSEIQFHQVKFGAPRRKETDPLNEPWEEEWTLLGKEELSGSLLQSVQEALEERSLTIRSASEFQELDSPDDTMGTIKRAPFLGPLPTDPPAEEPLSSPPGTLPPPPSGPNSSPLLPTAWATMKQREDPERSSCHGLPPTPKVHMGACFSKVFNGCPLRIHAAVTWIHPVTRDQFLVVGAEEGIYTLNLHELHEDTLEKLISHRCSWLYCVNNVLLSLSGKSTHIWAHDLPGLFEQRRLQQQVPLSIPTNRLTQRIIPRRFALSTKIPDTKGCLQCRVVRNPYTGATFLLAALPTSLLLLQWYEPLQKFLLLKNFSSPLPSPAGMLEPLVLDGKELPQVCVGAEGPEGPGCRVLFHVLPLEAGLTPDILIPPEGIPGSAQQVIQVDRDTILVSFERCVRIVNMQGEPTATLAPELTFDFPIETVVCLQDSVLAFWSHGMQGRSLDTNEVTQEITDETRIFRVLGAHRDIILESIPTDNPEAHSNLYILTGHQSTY
How it was run: as §1

Abl1 = target: T11, Abl1 (Homo sapiens, UniProt P00519)
T11 construct: purchased Nanosyn (contract screening)
How it was run: as §1

ARAF = target: T12, ARAF (Homo sapiens, UniProt P10398)
T12 construct: purchased Nanosyn (contract screening)
T12 sequence (P10398 1-606): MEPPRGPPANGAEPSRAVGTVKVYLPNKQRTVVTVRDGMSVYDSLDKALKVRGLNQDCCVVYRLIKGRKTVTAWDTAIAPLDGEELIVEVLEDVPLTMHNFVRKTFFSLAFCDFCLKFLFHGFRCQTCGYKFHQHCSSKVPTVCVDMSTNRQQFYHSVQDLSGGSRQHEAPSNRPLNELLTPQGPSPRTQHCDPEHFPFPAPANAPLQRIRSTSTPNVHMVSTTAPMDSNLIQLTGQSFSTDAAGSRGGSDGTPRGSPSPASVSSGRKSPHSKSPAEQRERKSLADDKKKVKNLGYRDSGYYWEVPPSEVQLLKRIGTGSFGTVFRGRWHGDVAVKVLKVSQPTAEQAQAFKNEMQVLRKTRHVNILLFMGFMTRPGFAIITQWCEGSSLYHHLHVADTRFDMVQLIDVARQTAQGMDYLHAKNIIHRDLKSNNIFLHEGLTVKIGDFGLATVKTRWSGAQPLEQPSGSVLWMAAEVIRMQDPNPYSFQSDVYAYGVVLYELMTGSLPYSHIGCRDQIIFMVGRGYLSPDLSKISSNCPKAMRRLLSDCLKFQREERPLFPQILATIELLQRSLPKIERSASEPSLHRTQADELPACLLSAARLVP
How it was run: as §1

KIT = target: T13, KIT (Homo sapiens, UniProt P10721)
T13 construct: purchased Nanosyn (contract screening)
How it was run: as §1

BRK = target: T14, BRK (Homo sapiens, UniProt Q13882)
T14 construct: purchased Nanosyn (contract screening)
How it was run: as §1

p38a = target: T15, p38a (Homo sapiens, UniProt Q16539)
T15 construct: Nanosyn (contract laboratory that ran the panel)
How it was run: as §1

LCK = target: T16, LCK (Homo sapiens, UniProt P06239)
T16 construct: purchased Nanosyn (contract screening)
How it was run: as §1

HCK = target: T17, HCK (Homo sapiens, UniProt P08631)
T17 construct: purchased Nanosyn (contract screening)
How it was run: as §1

T7 sequence (Q9NYL2 whole entry): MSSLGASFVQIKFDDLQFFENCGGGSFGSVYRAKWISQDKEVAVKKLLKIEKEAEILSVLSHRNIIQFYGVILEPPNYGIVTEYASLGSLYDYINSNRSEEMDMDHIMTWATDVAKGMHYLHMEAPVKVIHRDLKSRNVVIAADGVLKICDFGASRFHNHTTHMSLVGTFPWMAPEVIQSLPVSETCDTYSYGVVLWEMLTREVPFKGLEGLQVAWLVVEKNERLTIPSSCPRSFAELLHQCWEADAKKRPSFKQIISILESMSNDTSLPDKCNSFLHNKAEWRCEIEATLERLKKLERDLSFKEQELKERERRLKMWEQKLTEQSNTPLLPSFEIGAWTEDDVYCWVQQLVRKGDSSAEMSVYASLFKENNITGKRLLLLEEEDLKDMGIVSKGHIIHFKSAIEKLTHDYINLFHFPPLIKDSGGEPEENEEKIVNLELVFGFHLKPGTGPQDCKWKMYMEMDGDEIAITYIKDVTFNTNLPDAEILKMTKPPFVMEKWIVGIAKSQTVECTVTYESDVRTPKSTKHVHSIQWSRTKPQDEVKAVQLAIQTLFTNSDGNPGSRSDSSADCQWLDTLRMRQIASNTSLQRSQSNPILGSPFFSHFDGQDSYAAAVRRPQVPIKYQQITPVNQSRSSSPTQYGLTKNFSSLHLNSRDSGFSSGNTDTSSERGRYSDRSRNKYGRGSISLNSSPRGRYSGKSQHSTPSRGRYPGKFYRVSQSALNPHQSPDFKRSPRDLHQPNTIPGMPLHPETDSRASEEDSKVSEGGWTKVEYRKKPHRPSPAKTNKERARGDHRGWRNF
T11 sequence (P00519 whole entry): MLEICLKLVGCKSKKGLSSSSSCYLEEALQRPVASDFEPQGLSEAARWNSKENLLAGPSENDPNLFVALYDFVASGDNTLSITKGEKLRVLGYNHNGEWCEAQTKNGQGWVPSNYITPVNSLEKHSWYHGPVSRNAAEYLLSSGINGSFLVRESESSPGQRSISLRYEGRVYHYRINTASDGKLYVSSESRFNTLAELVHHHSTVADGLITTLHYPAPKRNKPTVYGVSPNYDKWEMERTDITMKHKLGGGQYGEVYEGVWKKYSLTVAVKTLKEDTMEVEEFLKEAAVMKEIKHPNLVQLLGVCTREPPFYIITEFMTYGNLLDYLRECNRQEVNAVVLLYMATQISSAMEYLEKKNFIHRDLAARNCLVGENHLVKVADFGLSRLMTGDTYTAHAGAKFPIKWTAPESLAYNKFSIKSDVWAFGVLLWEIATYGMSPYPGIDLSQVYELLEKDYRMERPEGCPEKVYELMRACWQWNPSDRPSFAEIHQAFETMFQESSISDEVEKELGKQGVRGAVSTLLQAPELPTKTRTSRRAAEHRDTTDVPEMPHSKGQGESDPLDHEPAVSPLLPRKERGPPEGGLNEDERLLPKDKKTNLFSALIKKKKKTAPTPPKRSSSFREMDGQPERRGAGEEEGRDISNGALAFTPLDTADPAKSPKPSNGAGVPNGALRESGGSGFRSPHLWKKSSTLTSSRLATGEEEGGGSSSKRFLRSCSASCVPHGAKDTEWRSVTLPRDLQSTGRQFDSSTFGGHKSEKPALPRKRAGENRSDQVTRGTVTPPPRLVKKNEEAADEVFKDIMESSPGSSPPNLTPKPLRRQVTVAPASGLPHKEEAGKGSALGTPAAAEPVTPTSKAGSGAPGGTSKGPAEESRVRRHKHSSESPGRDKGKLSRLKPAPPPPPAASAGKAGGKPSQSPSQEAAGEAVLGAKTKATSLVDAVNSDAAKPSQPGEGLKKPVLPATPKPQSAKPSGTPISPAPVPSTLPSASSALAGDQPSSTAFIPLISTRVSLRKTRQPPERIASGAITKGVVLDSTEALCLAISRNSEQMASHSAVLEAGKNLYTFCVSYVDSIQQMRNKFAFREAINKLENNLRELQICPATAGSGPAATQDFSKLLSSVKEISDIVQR
T14 sequence (Q13882 whole entry): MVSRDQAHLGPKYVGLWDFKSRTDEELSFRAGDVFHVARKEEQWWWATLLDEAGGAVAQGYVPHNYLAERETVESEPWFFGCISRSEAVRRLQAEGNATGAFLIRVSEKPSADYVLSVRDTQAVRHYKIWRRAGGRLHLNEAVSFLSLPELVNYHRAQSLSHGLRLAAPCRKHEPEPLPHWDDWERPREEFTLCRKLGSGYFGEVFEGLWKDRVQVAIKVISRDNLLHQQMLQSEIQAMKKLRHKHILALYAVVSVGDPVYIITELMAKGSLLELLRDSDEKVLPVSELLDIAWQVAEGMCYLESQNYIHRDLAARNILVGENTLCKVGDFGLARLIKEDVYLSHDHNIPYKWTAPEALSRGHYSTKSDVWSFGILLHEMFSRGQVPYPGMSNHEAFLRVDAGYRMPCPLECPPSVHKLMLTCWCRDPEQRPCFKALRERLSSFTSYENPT
T15 sequence (Q16539 whole entry): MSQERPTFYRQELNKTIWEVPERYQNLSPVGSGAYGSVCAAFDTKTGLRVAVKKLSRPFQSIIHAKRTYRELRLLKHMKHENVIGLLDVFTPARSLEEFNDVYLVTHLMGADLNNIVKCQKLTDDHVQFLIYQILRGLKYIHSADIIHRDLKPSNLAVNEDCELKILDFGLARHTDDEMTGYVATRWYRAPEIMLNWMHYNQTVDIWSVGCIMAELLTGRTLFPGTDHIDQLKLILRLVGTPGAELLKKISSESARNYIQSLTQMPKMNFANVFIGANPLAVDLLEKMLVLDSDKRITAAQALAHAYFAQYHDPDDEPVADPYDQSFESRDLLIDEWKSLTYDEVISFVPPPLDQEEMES
T6 sequence (Q9Y2I7 whole entry): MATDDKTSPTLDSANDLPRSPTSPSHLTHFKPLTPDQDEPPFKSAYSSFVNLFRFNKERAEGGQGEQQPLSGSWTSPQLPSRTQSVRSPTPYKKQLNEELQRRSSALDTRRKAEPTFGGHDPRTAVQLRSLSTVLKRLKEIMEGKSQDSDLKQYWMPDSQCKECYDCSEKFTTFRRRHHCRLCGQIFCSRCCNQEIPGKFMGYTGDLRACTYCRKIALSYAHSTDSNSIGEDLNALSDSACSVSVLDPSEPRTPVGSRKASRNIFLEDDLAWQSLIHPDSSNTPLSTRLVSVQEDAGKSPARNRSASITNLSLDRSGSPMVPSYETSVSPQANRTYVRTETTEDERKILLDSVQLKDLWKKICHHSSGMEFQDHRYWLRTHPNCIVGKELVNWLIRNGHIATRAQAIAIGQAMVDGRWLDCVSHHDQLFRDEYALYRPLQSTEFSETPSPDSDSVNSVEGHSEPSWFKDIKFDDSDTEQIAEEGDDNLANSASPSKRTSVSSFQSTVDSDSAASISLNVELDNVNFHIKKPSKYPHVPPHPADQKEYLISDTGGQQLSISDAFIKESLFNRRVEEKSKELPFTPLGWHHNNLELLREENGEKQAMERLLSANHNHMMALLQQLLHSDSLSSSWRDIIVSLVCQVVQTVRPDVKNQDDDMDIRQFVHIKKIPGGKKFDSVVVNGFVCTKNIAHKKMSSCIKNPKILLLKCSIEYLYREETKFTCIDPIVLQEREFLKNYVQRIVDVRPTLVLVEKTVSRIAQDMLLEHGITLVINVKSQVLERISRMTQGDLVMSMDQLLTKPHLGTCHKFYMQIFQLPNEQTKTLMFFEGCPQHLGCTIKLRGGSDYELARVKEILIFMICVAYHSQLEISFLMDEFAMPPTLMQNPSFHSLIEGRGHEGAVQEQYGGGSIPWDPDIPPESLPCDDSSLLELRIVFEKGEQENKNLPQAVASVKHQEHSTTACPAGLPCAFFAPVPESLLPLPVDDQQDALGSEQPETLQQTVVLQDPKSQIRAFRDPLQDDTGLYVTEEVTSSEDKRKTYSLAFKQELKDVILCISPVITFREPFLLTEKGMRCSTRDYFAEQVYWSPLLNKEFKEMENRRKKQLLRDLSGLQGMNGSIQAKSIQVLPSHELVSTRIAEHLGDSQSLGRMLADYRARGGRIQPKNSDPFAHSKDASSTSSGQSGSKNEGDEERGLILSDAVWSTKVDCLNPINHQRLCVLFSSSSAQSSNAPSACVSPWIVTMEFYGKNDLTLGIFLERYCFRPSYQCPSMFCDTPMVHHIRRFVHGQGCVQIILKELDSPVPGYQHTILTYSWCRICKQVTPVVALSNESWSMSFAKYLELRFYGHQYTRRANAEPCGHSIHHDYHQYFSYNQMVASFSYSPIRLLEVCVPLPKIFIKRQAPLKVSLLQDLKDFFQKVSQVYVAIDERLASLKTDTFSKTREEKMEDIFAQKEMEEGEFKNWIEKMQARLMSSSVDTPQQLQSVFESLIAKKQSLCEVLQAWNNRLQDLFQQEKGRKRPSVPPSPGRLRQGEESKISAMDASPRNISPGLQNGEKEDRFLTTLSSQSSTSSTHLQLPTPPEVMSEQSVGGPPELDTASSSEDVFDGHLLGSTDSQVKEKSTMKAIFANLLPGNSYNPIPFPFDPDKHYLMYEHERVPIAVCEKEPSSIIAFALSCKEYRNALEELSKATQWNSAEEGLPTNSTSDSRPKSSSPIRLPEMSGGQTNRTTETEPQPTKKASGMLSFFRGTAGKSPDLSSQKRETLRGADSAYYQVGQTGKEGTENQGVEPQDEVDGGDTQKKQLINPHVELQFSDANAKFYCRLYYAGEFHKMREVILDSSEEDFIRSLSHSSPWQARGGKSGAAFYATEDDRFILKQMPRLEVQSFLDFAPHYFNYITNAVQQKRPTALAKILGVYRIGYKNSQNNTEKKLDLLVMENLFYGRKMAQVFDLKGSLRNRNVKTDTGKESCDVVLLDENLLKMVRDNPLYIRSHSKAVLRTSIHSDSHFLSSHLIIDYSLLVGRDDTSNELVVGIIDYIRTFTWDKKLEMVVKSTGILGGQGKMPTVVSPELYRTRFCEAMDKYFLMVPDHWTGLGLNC

Row | inhibition at 5 µM (RET) | inhibition at 5 µM (FYN) | inhibition at 5 µM (LYNa) | inhibition at 5 µM (CLK4) | inhibition at 5 µM (CSK) | inhibition at 5 µM (PIKfyve) | inhibition at 5 µM (ZAK) | inhibition at 5 µM (COT1) | inhibition at 5 µM (PDGFRb) | inhibition at 5 µM (MAP4K2) | inhibition at 5 µM (Abl1) | inhibition at 5 µM (ARAF) | inhibition at 5 µM (KIT) | inhibition at 5 µM (BRK) | inhibition at 5 µM (p38a) | inhibition at 5 µM (LCK) | inhibition at 5 µM (HCK) | SMILES
1 | < 79% | < 79% | < 79% | < 79% | < 79% | < 79% | < 79% | < 79% | < 79% | < 79% | < 79% | ≥ 95% | < 79% | < 79% | < 79% | < 79% | < 79% | Cc1ccc(NC(=O)c2cc([S+](C)[O-])n(-c3ccc(F)cc3)n2)cc1-c1cc(OCCO)nc(N2CCOCC2)c1 (centres unmarked) [Ex10, 1-(4-fluorophenyl)-N-(3-(2-(2-hydroxyethoxy)-6-morpholinopyridin-4-yl)-4-methylphenyl)-5-(methylsulfinyl)-1H-pyrazole-3-carboxamide]
2 | < 79% | < 79% | < 79% | < 79% | < 79% | < 79% | < 79% | < 79% | < 79% | < 79% | < 79% | ≥ 95% | < 79% | < 79% | ≥ 95% | < 79% | < 79% | Cc1ccc(NC(=O)c2cc([S+](C)[O-])n(-c3ccc(F)cc3)n2)cc1-c1cc(N2CCOCC2)c(=O)n(C)c1 (centres unmarked) [Ex11, 1-(4-fluorophenyl)-N-(4-methyl-3-(1-methyl-5-morpholino-6-oxo-1,6-dihydropyridin-3-yl)phenyl)-5-(methylsulfinyl)-1H-pyrazole-3-carboxamide]
3 | < 79% | < 79% | < 79% | < 79% | < 79% | < 79% | < 79% | < 79% | < 79% | < 79% | < 79% | ≥ 95% | < 79% | < 79% | < 79% | < 79% | < 79% | Cc1ccc(NC(=O)c2cc(S(C)(=O)=O)n(-c3ccc(F)cc3)n2)cc1-c1cc(N2CCOCC2)c(=O)n(C)c1 [Ex12, 1-(4-fluorophenyl)-N-(4-methyl-3-(1-methyl-5-morpholino-6-oxo-1,6-dihydropyridin-3-yl)phenyl)-5-(methylsulfonyl)-1H-pyrazole-3-carboxamide]
4 | < 79% | < 79% | ≥ 95% | < 79% | < 79% | < 79% | < 79% | < 79% | ≥ 95% | < 79% | ≥ 95% | ≥ 95% | ≥ 95% | < 79% | < 79% | 90 to 94% | < 79% | Cc1ccc(NC(=O)c2cc(S(C)(=O)=O)n(-c3ccc(F)cc3)n2)cc1Nc1nccc(-c2cccnc2N)n1 [Ex13, N-(3-((4-(2-aminopyridin-3-yl)pyrimidin-2-yl)amino)-4-methylphenyl)-1-(4-fluorophenyl)-5-(methylsulfonyl)-1H-pyrazole-3-carboxamide]
5 | 80 to 89% | 90 to 94% | ≥ 95% | < 79% | 80 to 89% | 80 to 89% | 80 to 89% | < 79% | 90 to 94% | < 79% | < 79% | ≥ 95% | 90 to 94% | < 79% | < 79% | ≥ 95% | 90 to 94% | Cc1ccc(NC(=O)c2cc(S(C)(=O)=O)n(-c3ccc(F)cc3)n2)cc1C#Cc1cnc2cccnn12 [Ex14, 1-(4-fluorophenyl)-N-(3-(imidazo[1,2-b]pyridazin-3-ylethynyl)-4-methylphenyl)-5-(methylsulfonyl)-1H-pyrazole-3-carboxamide]
6 | ≥ 95% | ≥ 95% | ≥ 95% | < 79% | 80 to 89% | < 79% | < 79% | < 79% | ≥ 95% | < 79% | ≥ 95% | < 79% | ≥ 95% | < 79% | ≥ 95% | ≥ 95% | 80 to 89% | CCOC(=O)Nc1cn2nc(Nc3cc(NC(=O)c4cc(S(C)(=O)=O)n(-c5ccc(F)cc5)n4)ccc3C)ccc2n1 [Ex15, ethyl (6-((5-(1-(4-fluorophenyl)-5-(methylsulfonyl)-1H-pyrazole-3-carboxamido)-2-methylphenyl)amino)imidazo[1,2-b]pyridazin-2-yl)carbamate]
7 | < 79% | < 79% | < 79% | < 79% | < 79% | < 79% | < 79% | < 79% | < 79% | < 79% | < 79% | < 79% | < 79% | ≥ 95% | < 79% | < 79% | < 79% | CNC(=O)c1cc(Oc2ccc(NC(=O)c3cc(S(C)(=O)=O)n(-c4ccc(F)cc4)n3)c(F)c2)ccn1 [Ex17, 4-(3-fluoro-4-(1-(4-fluorophenyl)-5-(methylsulfonyl)-1H-pyrazole-3-carboxamido)phenoxy)-N-methylpicolinamide]
